The record followed here is PubChem BioAssay (NCI).

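Grown in 96-well plates, cells were treated for 48 hours with each compound at five concentrations. Insufficient inhibition: endpoint recorded as highest concentration tested. At the GI50, growth is halved. TGI is the concentration that stops growth completely.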

Test systems include CCRF-CEM leukemia; IGROV1 ovarian; MDA-MB-231 breast; NCI-H226 lung; NCI-H23 lung; OVCAR-8 ovarian; SF-539 CNS; SN12C renal; SW-620 colon; UACC-62 melanoma.
Holding throughout (assay): NCI tumour cell line growth inhibition, 48 h

Consider `C#Cc1cc2c(N)c(C(=O)c3cc(OC)c(OC)c(OC)c3)[nH]c2cc1OC`, for which the GI50 in the assay on CCRF-CEM leukemia is 0.63 µM; with IGROV1 ovarian it was 2.05 µM; in the assay on MDA-MB-231 breast, 5.13 µM; with NCI-H226 lung it was 5.74 µM; in the assay with NCI-H23 lung it was 1.94 µM; in the assay with OVCAR-8 ovarian, 2.48 µM. For the same compound, the GI50 in the assay with SF-539 CNS was 0.28 µM; in the assay on SN12C renal, 11.2 µM; with SW-620 colon, 0.396 µM; with UACC-62 melanoma it was 2.77 µM. In addition, the TGI was above 100 µM in the assay with CCRF-CEM leukemia; 74.9 µM with IGROV1 ovarian; above 100 µM in the assay on MDA-MB-231 breast; above 100 µM with NCI-H226 lung; above 100 µM in the assay on NCI-H23 lung; above 100 µM with OVCAR-8 ovarian. Moreover, the TGI in the assay with SF-539 CNS is 1.6 µM; in the assay on SN12C renal, above 100 µM; with SW-620 colon, above 100 µM; with UACC-62 melanoma, above 100 µM.

On to `O=[N+]([O-])c1cc(F)c2cccnc2c1O`, for which the GI50 is 3.46 µM with CCRF-CEM leukemia; 2.5 µM with IGROV1 ovarian; 25.8 µM in the assay on MDA-MB-231 breast; 30.5 µM in the assay on NCI-H226 lung; 7.73 µM with NCI-H23 lung; 11.3 µM in the assay on OVCAR-8 ovarian. Besides, the GI50 was 13.6 µM in the assay on SF-539 CNS, 22.1 µM in the assay on SN12C renal, 3.44 µM with SW-620 colon and 11 µM in the assay on UACC-62 melanoma. The TGI in the assay with CCRF-CEM leukemia was 26.7 µM; with IGROV1 ovarian, 14.7 µM; in the assay on MDA-MB-231 breast, above 100 µM; in the assay on NCI-H226 lung it was above 100 µM; in the assay with NCI-H23 lung, above 100 µM; in the assay on OVCAR-8 ovarian, above 100 µM. Also, the TGI in the assay with SF-539 CNS is above 100 µM; in the assay with SN12C renal it was above 100 µM; in the assay with SW-620 colon it was above 100 µM; with UACC-62 melanoma it was 55.6 µM.

In the case of `O=c1c2c3c(sc2n2c(-c4ccc(Br)cc4)nnc2n1Cc1ccccc1)CCCC3`, the GI50 in the assay with CCRF-CEM leukemia was 2.98 µM; in the assay on IGROV1 ovarian it was 11.7 µM; in the assay with MDA-MB-231 breast, 3.39 µM; in the assay with NCI-H226 lung, 7.32 µM; with NCI-H23 lung, 12.4 µM; in the assay with OVCAR-8 ovarian it was 15.5 µM. The GI50 in the assay with SF-539 CNS was 11.9 µM; with SN12C renal it was 8.01 µM; in the assay with SW-620 colon, 13.1 µM; in the assay with UACC-62 melanoma, 4.39 µM. Further, the TGI was found to be 29.2 µM in the assay on CCRF-CEM leukemia; 26.9 µM in the assay on IGROV1 ovarian; 16.6 µM in the assay on MDA-MB-231 breast; 20.3 µM in the assay with NCI-H226 lung; 31.3 µM with NCI-H23 lung; 37 µM in the assay on OVCAR-8 ovarian. The TGI in the assay with SF-539 CNS worked out at 32.3 µM; in the assay with SN12C renal, 23.4 µM; in the assay on SW-620 colon, 26.3 µM; with UACC-62 melanoma it was 17.2 µM.

On to `Cc1ccc2c(c1)C(=O)c1c-2n(CCCN=[N+]=[N-])c(=O)c2cc([N+](=O)[O-])ccc12`, for which the GI50 with CCRF-CEM leukemia is 31.7 µM; in the assay on IGROV1 ovarian, 19.2 µM; in the assay on MDA-MB-231 breast it was 46.9 µM; in the assay on NCI-H226 lung, above 100 µM; with NCI-H23 lung, above 100 µM; with OVCAR-8 ovarian, above 100 µM. The GI50 in the assay with SF-539 CNS was above 100 µM; with SN12C renal, 59.4 µM; in the assay on SW-620 colon, 59.7 µM; with UACC-62 melanoma, 30.3 µM. Moreover, the TGI in the assay with CCRF-CEM leukemia, with IGROV1 ovarian, in the assay with MDA-MB-231 breast, with NCI-H226 lung, with NCI-H23 lung and in the assay on OVCAR-8 ovarian was above 100 µM throughout. Besides, the TGI in the assay with SF-539 CNS, in the assay on SN12C renal, in the assay on SW-620 colon and with UACC-62 melanoma was above 100 µM throughout.

On to `COc1ccc(NC(=O)/C=C(C)/C=C/C=C(C)\C=C\C2=C(C)CCCC2(C)C)cc1`, for which the GI50 with CCRF-CEM leukemia was 48 µM; with IGROV1 ovarian, 54.3 µM; with MDA-MB-231 breast, 5.21 µM; with NCI-H226 lung it was above 100 µM; in the assay on NCI-H23 lung it was 30.1 µM; in the assay on OVCAR-8 ovarian, above 100 µM. For the same compound, the GI50 in the assay on SF-539 CNS is 48.8 µM; in the assay with SN12C renal it was 97.3 µM; in the assay with SW-620 colon, 51.6 µM; in the assay on UACC-62 melanoma it was 24.6 µM. Moreover, the TGI in the assay on CCRF-CEM leukemia was above 100 µM; in the assay on IGROV1 ovarian it was above 100 µM; in the assay with MDA-MB-231 breast it was 59 µM; in the assay on NCI-H226 lung, above 100 µM; in the assay on NCI-H23 lung, above 100 µM; in the assay on OVCAR-8 ovarian it was above 100 µM. The TGI with SF-539 CNS, in the assay on SN12C renal, with SW-620 colon and in the assay on UACC-62 melanoma was above 100 µM throughout.

As for `OC(COc1cccc2ccccc12)CN1CCN(c2ccccc2Cl)CC1` (stereo not given), the GI50 in the assay with CCRF-CEM leukemia is 11.4 µM; in the assay with IGROV1 ovarian, 10 µM; in the assay with MDA-MB-231 breast, 10.8 µM; in the assay on NCI-H226 lung, 15 µM; in the assay with NCI-H23 lung, 13.3 µM; with OVCAR-8 ovarian, 16.6 µM. Moreover, the GI50 was 16.5 µM with SF-539 CNS, 12.5 µM in the assay with SN12C renal, 10.9 µM with SW-620 colon and 12.2 µM with UACC-62 melanoma. The TGI with CCRF-CEM leukemia is 69.1 µM; with IGROV1 ovarian, 25.5 µM; in the assay on MDA-MB-231 breast it was 25.5 µM; with NCI-H226 lung, 31.6 µM; with NCI-H23 lung it was 29.8 µM; in the assay with OVCAR-8 ovarian, 32.2 µM. Also, the TGI in the assay on SF-539 CNS came out at 32.8 µM; with SN12C renal, 25.4 µM; in the assay on SW-620 colon it was 27.9 µM; in the assay with UACC-62 melanoma, 24.8 µM.

As to `CCOC(=O)c1ccccc1-c1c2ccc(=[N+](C)C)cc-2oc2cc(N(C)C)ccc12`, the GI50 in the assay with CCRF-CEM leukemia is 0.42 µM; with IGROV1 ovarian it was 0.332 µM; in the assay with MDA-MB-231 breast, 0.301 µM; with NCI-H226 lung, 0.758 µM; in the assay on NCI-H23 lung, 0.231 µM; in the assay with OVCAR-8 ovarian, 0.195 µM. The GI50 with SF-539 CNS is 0.379 µM; in the assay with SN12C renal, 0.171 µM; in the assay with SW-620 colon it was 0.261 µM; in the assay on UACC-62 melanoma it was 0.332 µM. The TGI in the assay on CCRF-CEM leukemia is above 45.9 µM; in the assay on IGROV1 ovarian, 16.1 µM; with MDA-MB-231 breast, 10.7 µM; with NCI-H226 lung, 10.2 µM; in the assay on NCI-H23 lung, 11.9 µM; with OVCAR-8 ovarian, above 22.8 µM. The TGI amounted to 5.33 µM in the assay on SF-539 CNS, 4.31 µM in the assay on SN12C renal, 17.4 µM in the assay with SW-620 colon and 4.12 µM with UACC-62 melanoma.
